Experimental data from patent US8815893B2, “Hetarylaminonaphthyridines” (Merck Patent GmbH, priority 2010, dated 2014).

What was measured:
[1] = biological target: T1, GST-ALK5 (Homo sapiens, UniProt P36897); assay: In-vitro (enzyme) kinase assay, 384-well flashplate (example 14); type: biochemical; settings: GST-ALK5, GST-SMAD2 substrate, 33P-ATP flashplate, 30° C. 45 min; IC50 classes; read-out: TβR activity (example 14)
T1 sequence (P36897 34-503): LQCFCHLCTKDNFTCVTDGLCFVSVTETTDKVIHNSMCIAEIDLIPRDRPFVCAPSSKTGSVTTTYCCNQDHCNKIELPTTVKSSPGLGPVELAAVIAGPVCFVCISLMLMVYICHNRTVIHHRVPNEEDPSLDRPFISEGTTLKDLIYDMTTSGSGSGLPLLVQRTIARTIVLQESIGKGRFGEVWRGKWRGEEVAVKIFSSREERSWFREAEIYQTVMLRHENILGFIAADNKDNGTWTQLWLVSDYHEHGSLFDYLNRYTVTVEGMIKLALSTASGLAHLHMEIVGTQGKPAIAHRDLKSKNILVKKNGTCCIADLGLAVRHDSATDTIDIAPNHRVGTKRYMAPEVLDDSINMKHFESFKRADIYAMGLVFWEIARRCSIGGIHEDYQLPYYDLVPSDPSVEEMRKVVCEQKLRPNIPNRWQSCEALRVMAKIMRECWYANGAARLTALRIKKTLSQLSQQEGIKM
Description: In-Vitro (Enzyme) Assay for Determination of the Efficacy of Inhibitors of the Inhibition of TGF-Beta-Mediated Effects
The kinase assay was carried out as 384-well flashplate assay. 31.2 nM of GST-ALK5, 439 nM of GST-SMAD2 and 3 mM of ATP (with 0.3 μCi of ^33P-ATP/well) were incubated in a total volume of 35 μl (20 mM of HEPES, 10 mM of MgCl2, 5 mM of MnCl2, 1 mM of DTT, 0.1% of BSA, pH 7.4) without or with test substance (5-10 concentrations) at 30° C. for 45 min. The reaction was stopped using 25 μl of 200 mM EDTA solution, filtered with suction at room temperature after 30 min, and the wells were washed with 3 times 100 μl of 0.9% NaCl solution. Radioactivity was measured in the TopCount. The IC50 values were calculated using RS1. Above and below, all temperatures were indicated in ° C.

[2] = system: lung epithelial cell line Mv1Lu; assay: Cellular assay for TGF-beta receptor I kinase inhibitors: elimination of TGF-beta-mediated growth inhibition (example 13); type: cell-based; settings: 48 h; Mv1Lu cells, 1 ng/ml TGF-beta, 0.5% FCS, two days, Crystal Violet staining; read-out: TβR activity (example 13)
Description: Cellular Assay for Testing TGF-Beta Receptor I Kinase Inhibitors
As an example, the ability of the inhibitors to eliminate TGF-beta-mediated growth inhibition was tested. Cells of the lung epithelial cell line Mv1Lu were sown in a defined cell density in a 96-well microtiter plate and cultivated overnight under standard conditions. Next day, the medium was replaced by medium which comprises 0.5% of FCS and 1 ng/ml of TGF-beta, and the test substances were added in defined concentrations, generally in the form of dilution series with 5 fold steps. The concentration of the solvent DMSO was constant at 0.5%. After a further two days, Crystal Violet staining of the cells was carried out. After extraction of the Crystal Violet from the fixed cells, the absorption was measured spectrophotometrically at 550 nm. It could be used as a quantitative measure of the adherent cells present and thus of the cell proliferation during the culture.

IC50 [1] [nM] | Compound | IC50 [2] [nM]
< 100 | CC(C)(C)OC(=O)NCCCC(=O)Nc1cc(Nc2cc(-c3cc(Cl)ccc3F)nc3ncccc23)ncn1 [compound 131] | < 100
1000 to 10000 | CCN1CCN(C(=O)c2cnccc2Nc2cc(-c3cc(Cl)ccc3F)nc3ncccc23)CC1 [compound 132] | 1000 to 10000
< 100 | O=C(NCCN1CCCC1)c1cnccc1Nc1cc(-c2cc(Cl)ccc2F)nc2ncccc12 [compound 133] | < 100
> 10000 | CC(C)(C)OC(=O)NC(C)(C)C(=O)Nc1cc(Nc2cc(-c3cc(Cl)ccc3F)nc3ncccc23)ncn1 [compound 134] | > 10000
< 100 | NCCCC(=O)Nc1cc(Nc2cc(-c3cc(Cl)ccc3F)nc3ncccc23)ncn1 [compound 135] | 100 to 1000
100 to 1000 | CC(C)(N)C(=O)Nc1cc(Nc2cc(-c3cc(Cl)ccc3F)nc3ncccc23)ncn1 [compound 136] | 100 to 1000
> 10000 | CN(C)c1cc(Nc2cc(-c3cc(F)ccc3F)nc3ncccc23)ncn1 [compound 137] | > 10000
100 to 1000 | COCCNc1cc(Nc2cc(-c3cc(F)ccc3F)nc3ncccc23)ncn1 [compound 138] | 100 to 1000
< 100 | O=[N+]([O-])c1cn(-c2cc(-c3cc(Cl)ccc3F)nc3ncccc23)c2ccncc12 [compound 139] | 1000 to 10000
< 100 | O=c1[nH]cc(-c2cc(-c3cc(Cl)ccc3F)nc3ncccc23)c2ccncc12 [compound 140] | < 100
< 100 | CCN1CCC(CNc2cc(Nc3cc(-c4cc(F)ccc4F)nc4ncccc34)ncn2)CC1 [compound 141] | 100 to 1000
< 100 | NC(=O)Nc1cc(Nc2cc(-c3cc(F)ccc3F)nc3ncccc23)ccn1 [compound 143] | < 100
< 100 | Fc1ccc(Cl)cc1-c1cc(-n2cc(Br)c3cnccc32)c2cccnc2n1 [compound 144] | < 100
> 10000 | Cc1cc(-c2cc(Nc3cc(N(C)C)ncn3)c3cccnc3n2)c(C)o1 [compound 145] | > 10000
100 to 1000 | O=c1c2cnccc2c(-c2cc(-c3cc(Cl)ccc3F)nc3ncccc23)cn1CCN1CCCC1 [compound 146] | 100 to 1000
1000 to 10000 | Cc1cc(-c2cc(Nc3cc(NCCN4CCCC4)ncn3)c3cccnc3n2)c(C)o1 [compound 147] | > 10000
> 10000 | CC(C)Oc1cccc(-c2cc(Nc3cc(NCCN4CCCC4)ncn3)c3cccnc3n2)c1 [compound 148] | 1000 to 10000
